Legend:
Test in all cases: relative viability (nuclei count vs DMSO), 5 days (fraction); higher = more cells survive
CX-5461 + Dasatinib = compound: Cc1cnc(CNC(=O)c2c(=O)c3ccc(N4CCCN(C)CC4)nc3n3c2sc2ccccc23)cn1 [CX-5461] + Cc1nc(Nc2ncc(C(=O)Nc3c(C)cccc3Cl)s2)cc(N2CCN(CCO)CC2)n1 [Dasatinib] (partner 0.075 µM)
In short: (§1)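 Five library-drug doses in √10 steps were combined with a fixed anchor-drug dose, or a single drug was given alone, by pin tool to lung cancer cell lines in 1536-well plates the day after seeding. Nuclei were stained and counted after 5 days. Relative viability is the nuclei count in treated wells over that in vehicle wells, taken as the median of duplicate plates.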

IMD-0354 + Trametinib = compound: O=C(Nc1cc(C(F)(F)F)cc(C(F)(F)F)c1)c1cc(Cl)ccc1O [IMD-0354] + CC(=O)Nc1cccc(-n2c(=O)n(C3CC3)c(=O)c3c(Nc4ccc(I)cc4F)n(C)c(=O)c(C)c32)c1 [Trametinib] (partner 0.02 µM)
In short: as §1

IMD-0354 + Foretinib = compound: O=C(Nc1cc(C(F)(F)F)cc(C(F)(F)F)c1)c1cc(Cl)ccc1O [IMD-0354] + COc1cc2c(Oc3ccc(NC(=O)C4(C(=O)Nc5ccc(F)cc5)CC4)cc3F)ccnc2cc1OCCCN1CCOCC1 [Foretinib] (partner 0.25 µM)
In short: as §1

IMD-0354 + Pictilisib = compound: O=C(Nc1cc(C(F)(F)F)cc(C(F)(F)F)c1)c1cc(Cl)ccc1O [IMD-0354] + CS(=O)(=O)N1CCN(Cc2cc3nc(-c4cccc5[nH]ncc45)nc(N4CCOCC4)c3s2)CC1 [Pictilisib] (partner 1 µM)
In short: as §1

What does the source list for NCI-H1944?
relative viability (CX-5461 + Dasatinib; first compound 0.01 µM): 0.208; relative viability (CX-5461 + Dasatinib; first compound 0.03162 µM): 0.204; relative viability (CX-5461 + Dasatinib; first compound 0.1 µM): 0.168; relative viability (CX-5461 + Dasatinib; first compound 0.3162 µM): 0.14; relative viability (CX-5461 + Dasatinib; first compound 1 µM): 0.11; relative viability (IMD-0354 + Trametinib; first compound 0.04 µM): 0.399; relative viability (IMD-0354 + Trametinib; first compound 0.1265 µM): 0.391; relative viability (IMD-0354 + Trametinib; first compound 0.4 µM): 0.388; relative viability (IMD-0354 + Trametinib; first compound 1.265 µM): 0.39; relative viability (IMD-0354 + Trametinib; first compound 4 µM): 0.167; relative viability (IMD-0354 + Foretinib; first compound 0.04 µM): 0.873; relative viability (IMD-0354 + Foretinib; first compound 0.1265 µM): 0.963; relative viability (IMD-0354 + Foretinib; first compound 0.4 µM): 0.887; relative viability (IMD-0354 + Foretinib; first compound 1.265 µM): 0.945; relative viability (IMD-0354 + Foretinib; first compound 4 µM): 0.154; relative viability (IMD-0354 + Pictilisib; first compound 0.04 µM): 0.351; relative viability (IMD-0354 + Pictilisib; first compound 0.1265 µM): 0.341; relative viability (IMD-0354 + Pictilisib; first compound 1.265 µM): 0.234; relative viability (IMD-0354 + Pictilisib; first compound 4 µM): 0.151

With NCI-H1734 as the cell line, how does the relative viability (CX-5461 + Dasatinib; first compound 0.01 µM) read?
The relative viability was 0.472.

And the relative viability (CX-5461 + Dasatinib; first compound 0.03162 µM)?
Its relative viability is 0.543.

And the relative viability (CX-5461 + Dasatinib; first compound 0.1 µM)?
The relative viability was 0.471.

And the relative viability (CX-5461 + Dasatinib; first compound 0.3162 µM)?
Its relative viability is 0.405.

What about the relative viability (CX-5461 + Dasatinib; first compound 1 µM) of the same cell line?
Its relative viability is 0.25.

What about the relative viability (IMD-0354 + Trametinib; first compound 0.04 µM) of the same cell line?
Its relative viability is 0.713.

And the relative viability (IMD-0354 + Trametinib; first compound 0.1265 µM)?
Its relative viability is 0.703.

And the relative viability (IMD-0354 + Trametinib; first compound 0.4 µM)?
The relative viability was 0.483.

And the relative viability (IMD-0354 + Trametinib; first compound 1.265 µM)?
Its relative viability is 0.366.

And the relative viability (IMD-0354 + Trametinib; first compound 4 µM)?
The relative viability was 0.209.

What about the relative viability (IMD-0354 + Foretinib; first compound 0.04 µM) of the same cell line?
The relative viability was 0.928.

What about the relative viability (IMD-0354 + Foretinib; first compound 0.1265 µM) of the same cell line?
Its relative viability is 0.902.

What about the relative viability (IMD-0354 + Foretinib; first compound 0.4 µM) of the same cell line?
The relative viability was 0.548.

And the relative viability (IMD-0354 + Foretinib; first compound 1.265 µM)?
Its relative viability is 0.549.

What about the relative viability (IMD-0354 + Foretinib; first compound 4 µM) of the same cell line?
The relative viability was 0.19.

And the relative viability (IMD-0354 + Pictilisib; first compound 0.04 µM)?
Its relative viability is 0.495.

And the relative viability (IMD-0354 + Pictilisib; first compound 0.1265 µM)?
The relative viability was 0.51.

What about the relative viability (IMD-0354 + Pictilisib; first compound 0.4 µM) of the same cell line?
The relative viability was 0.339.

And the relative viability (IMD-0354 + Pictilisib; first compound 1.265 µM)?
The relative viability was 0.209.

And the relative viability (IMD-0354 + Pictilisib; first compound 4 µM)?
Its relative viability is 0.143.

Which results are given for LXF-289?
relative viability (CX-5461 + Dasatinib; first compound 0.01 µM): 0.257; relative viability (CX-5461 + Dasatinib; first compound 0.03162 µM): 0.204; relative viability (CX-5461 + Dasatinib; first compound 0.1 µM): 0.202; relative viability (CX-5461 + Dasatinib; first compound 0.3162 µM): 0.103; relative viability (CX-5461 + Dasatinib; first compound 1 µM): 0.154; relative viability (IMD-0354 + Trametinib; first compound 0.04 µM): 0.721; relative viability (IMD-0354 + Trametinib; first compound 0.1265 µM): 0.62; relative viability (IMD-0354 + Trametinib; first compound 0.4 µM): 0.643; relative viability (IMD-0354 + Trametinib; first compound 1.265 µM): 0.5; relative viability (IMD-0354 + Trametinib; first compound 4 µM): 0.207; relative viability (IMD-0354 + Foretinib; first compound 0.04 µM): 0.945; relative viability (IMD-0354 + Foretinib; first compound 0.1265 µM): 0.99; relative viability (IMD-0354 + Foretinib; first compound 0.4 µM): 0.646; relative viability (IMD-0354 + Foretinib; first compound 1.265 µM): 0.483; relative viability (IMD-0354 + Foretinib; first compound 4 µM): 0.129; relative viability (IMD-0354 + Pictilisib; first compound 0.04 µM): 0.798; relative viability (IMD-0354 + Pictilisib; first compound 0.1265 µM): 0.787; relative viability (IMD-0354 + Pictilisib; first compound 0.4 µM): 0.524; relative viability (IMD-0354 + Pictilisib; first compound 1.265 µM): 0.157; relative viability (IMD-0354 + Pictilisib; first compound 4 µM): 0.0919

How did the relative viability (CX-5461 + Dasatinib; first compound 0.01 µM) turn out when H3255 was run?
The relative viability was 0.482.

And the relative viability (CX-5461 + Dasatinib; first compound 0.03162 µM)?
Its relative viability is 0.295.

What about the relative viability (CX-5461 + Dasatinib; first compound 0.1 µM) of the same cell line?
Its relative viability is 0.34.

And the relative viability (CX-5461 + Dasatinib; first compound 0.3162 µM)?
The relative viability was 0.334.

And the relative viability (CX-5461 + Dasatinib; first compound 1 µM)?
The relative viability was 0.304.

And the relative viability (IMD-0354 + Trametinib; first compound 0.04 µM)?
The relative viability was 0.612.

What about the relative viability (IMD-0354 + Trametinib; first compound 0.1265 µM) of the same cell line?
Its relative viability is 0.664.

And the relative viability (IMD-0354 + Trametinib; first compound 0.4 µM)?
The relative viability was 0.472.

What about the relative viability (IMD-0354 + Trametinib; first compound 1.265 µM) of the same cell line?
The relative viability was 0.49.

What about the relative viability (IMD-0354 + Trametinib; first compound 4 µM) of the same cell line?
Its relative viability is 0.311.

And the relative viability (IMD-0354 + Foretinib; first compound 0.04 µM)?
The relative viability was 0.836.

What about the relative viability (IMD-0354 + Foretinib; first compound 0.1265 µM) of the same cell line?
The relative viability was 1.02.

And the relative viability (IMD-0354 + Foretinib; first compound 0.4 µM)?
The relative viability was 0.785.

What about the relative viability (IMD-0354 + Foretinib; first compound 1.265 µM) of the same cell line?
The relative viability was 0.433.

And the relative viability (IMD-0354 + Foretinib; first compound 4 µM)?
The relative viability was 0.283.

And the relative viability (IMD-0354 + Pictilisib; first compound 0.04 µM)?
The relative viability was 0.469.

And the relative viability (IMD-0354 + Pictilisib; first compound 0.1265 µM)?
Its relative viability is 0.421.

And the relative viability (IMD-0354 + Pictilisib; first compound 0.4 µM)?
Its relative viability is 0.342.

And the relative viability (IMD-0354 + Pictilisib; first compound 1.265 µM)?
Its relative viability is 0.34.

What about the relative viability (IMD-0354 + Pictilisib; first compound 4 µM) of the same cell line?
The relative viability was 0.251.

How did the relative viability (CX-5461 + Dasatinib; first compound 0.01 µM) turn out when 201T was run?
The relative viability was 0.652.

What about the relative viability (CX-5461 + Dasatinib; first compound 0.03162 µM) of the same cell line?
Its relative viability is 0.555.

What about the relative viability (CX-5461 + Dasatinib; first compound 0.1 µM) of the same cell line?
Its relative viability is 0.537.

And the relative viability (CX-5461 + Dasatinib; first compound 0.3162 µM)?
The relative viability was 0.542.

And the relative viability (CX-5461 + Dasatinib; first compound 1 µM)?
The relative viability was 0.477.

And the relative viability (IMD-0354 + Trametinib; first compound 0.04 µM)?
The relative viability was 0.732.

And the relative viability (IMD-0354 + Trametinib; first compound 0.1265 µM)?
The relative viability was 0.74.

And the relative viability (IMD-0354 + Trametinib; first compound 0.4 µM)?
The relative viability was 0.611.

And the relative viability (IMD-0354 + Trametinib; first compound 1.265 µM)?
The relative viability was 0.727.

What about the relative viability (IMD-0354 + Trametinib; first compound 4 µM) of the same cell line?
The relative viability was 0.319.

What about the relative viability (IMD-0354 + Foretinib; first compound 0.04 µM) of the same cell line?
The relative viability was 1.18.

What about the relative viability (IMD-0354 + Foretinib; first compound 0.1265 µM) of the same cell line?
Its relative viability is 1.18.

And the relative viability (IMD-0354 + Foretinib; first compound 0.4 µM)?
Its relative viability is 1.05.

And the relative viability (IMD-0354 + Foretinib; first compound 1.265 µM)?
Its relative viability is 0.235.

And the relative viability (IMD-0354 + Foretinib; first compound 4 µM)?
The relative viability was 0.178.

What about the relative viability (IMD-0354 + Pictilisib; first compound 0.04 µM) of the same cell line?
Its relative viability is 0.785.

And the relative viability (IMD-0354 + Pictilisib; first compound 0.1265 µM)?
Its relative viability is 0.661.

What about the relative viability (IMD-0354 + Pictilisib; first compound 0.4 µM) of the same cell line?
Its relative viability is 0.584.

What about the relative viability (IMD-0354 + Pictilisib; first compound 1.265 µM) of the same cell line?
The relative viability was 0.59.

And the relative viability (IMD-0354 + Pictilisib; first compound 4 µM)?
Its relative viability is 0.41.

Which results are given for NCI-H2126?
relative viability (CX-5461 + Dasatinib; first compound 0.01 µM): 0.54; relative viability (CX-5461 + Dasatinib; first compound 0.03162 µM): 0.568; relative viability (CX-5461 + Dasatinib; first compound 0.1 µM): 0.562; relative viability (CX-5461 + Dasatinib; first compound 0.3162 µM): 0.672; relative viability (CX-5461 + Dasatinib; first compound 1 µM): 0.413; relative viability (IMD-0354 + Trametinib; first compound 0.04 µM): 0.591; relative viability (IMD-0354 + Trametinib; first compound 0.1265 µM): 0.558; relative viability (IMD-0354 + Trametinib; first compound 0.4 µM): 0.491; relative viability (IMD-0354 + Trametinib; first compound 1.265 µM): 0.644; relative viability (IMD-0354 + Trametinib; first compound 4 µM): 0.31; relative viability (IMD-0354 + Foretinib; first compound 0.04 µM): 0.935; relative viability (IMD-0354 + Foretinib; first compound 0.1265 µM): 1.23; relative viability (IMD-0354 + Foretinib; first compound 0.4 µM): 0.813; relative viability (IMD-0354 + Foretinib; first compound 1.265 µM): 0.875; relative viability (IMD-0354 + Foretinib; first compound 4 µM): 0.494; relative viability (IMD-0354 + Pictilisib; first compound 0.04 µM): 0.527; relative viability (IMD-0354 + Pictilisib; first compound 0.1265 µM): 0.478; relative viability (IMD-0354 + Pictilisib; first compound 0.4 µM): 0.471; relative viability (IMD-0354 + Pictilisib; first compound 1.265 µM): 0.353; relative viability (IMD-0354 + Pictilisib; first compound 4 µM): 0.302
